Test results taken from US6437138B1, “3-pyridyloxymethyl heterocyclic ether compounds useful in controlling chemical synaptic transmission” (priority 1996, dated 2002).
Counter-ions that a name gives are not always drawn.

Columns and labels:
[1] = molecular target: neuronal nicotinic cholinergic channels in IMR-32 cells (Homo sapiens, UniProt P30926+P32297); assay: 86Rb+ efflux in IMR-32 cells (activation, or inhibition of efflux elicited by (S)-nicotine); type: cell-based; conditions: for inhibition at 1 µM / inhibition at 10 µM / Emax: IMR-32; for inhibition at 10 µM: single dose 10 μM; for Emax: read-out: IMR-32 maximal response
Source text: For the purpose of directly evaluating the ability of test compounds to functionally activate or inhibit certain subtypes of neuronal nicotinic cholinergic channels, an assay to determine ^86Rb^+Efflux in IMR-32 cells was employed (Protocol B below).
B. Protocols for the Determination of Functional Effects of Cholinerzic Channel Receptor Ligands on Synaptic Transmission
Cells of the IMR-32 human neuroblastoma clonal cell line (ATCC, Rockville, Md.) were maintained in a log phase of growth according to established procedures (Lukas, 1993). Experimental cells were seeded at a density of 500,000 cells/ml into a 24-well tissue culture dish. Plated cells were allowed to proliferate for at least 48 hours before loading with 2 μCi/ml of ^86Rb^+ (35 Ci/mmol) overnight at 37° C. The ^86Rb^+ efflux assays were performed according to previously published protocols (Lukas, R. J., J. Pharmacol. Exp. Ther., 265: 294-302, 1993) except serum-free Dulbecco's Modified Eagle's Medium was used during the ^86Rb^+ loading, rinsing, and agonist-induced efflux steps.
EC50 data and maximal responses (reported as percent relative to the response elicited by 100 μM (S)-nicotine) are shown for selected compounds of the invention. The inhibition data (given for a larger number of compounds) reflect inhibition of the efflux elicited by 100 μM (S)-nicotine for either a single dose (% inhibition at 1 μM or at 10 μM) or over a range of doses (IC50 of inhibition). […] This finding is in agreement with the results of others who have linked dopamine release, which is dependent upon the ion flux in synaptic transmission, to binding at nicotinic receptors (cf., for example, Lippiello and Caldwell, U.S. Pat. No. 5,242,935, issued Sep. 7, 1993; Caldwell and Lippiello, U.S. Pat. No. 5,248,690, issued Sep. 28, 1993; and Wonnacott et al., Prog. Brain Res., 79: 157-163 (1989)).

[2] = inhibition of the efflux elicited by 100 μM (S)-nicotine, single dose 1 μM
[3] = inhibition of the efflux elicited by 100 μM (S)-nicotine
[4] = 86Rb+ efflux, percent relative to the response elicited by 100 μM (S)-nicotine

| SMILES | inhibition at 1 µM [1, 2] [%] | melting point | Emax [1, 4] [%] | also measured |
| --- | --- | --- | --- | --- |
| CCCCC#Cc1cncc(OC[C@@H]2CCCN2C)c1 [Example 4, 5-Hexynyl-3-(1-methyl-2-(S)-pyrrolidinylmethoxy)pyridine Dihydrochloride] | 55 |  |  |  |
| CN1CCC[C@H]1COc1cncc(C=Cc2ccncc2)c1 [Example 13, 5-(2-(4-Pyridinyl)ethenylyl)-3-((1-methyl-2-(S)-pyrrolidinylmethoxy)pyridine Triihydrochloride] | 50 |  |  |  |
| CN1CCC[C@H]1COc1cncc(C#CCCCC#N)c1 [Example 14, (5-(5-Cyano-1-pentynyl-3-(1-methyl-2-(S)-pyrrolidinylmethoxy)pyridine Dihydrochloride] | 50 |  |  |  |
| COC(=O)CCc1cncc(OC[C@@H]2CCCN2C)c1 [Example 15, 5-(2-(Methoxycarbonyl)ethyl)-3-(1-methyl-2-(S)-pyrrolidinylmethoxy)pyridine Dihydrochloride] | 16 |  |  | inhibition at 10 µM [1, 3]: 83% |
| COC(=O)C=Cc1cncc(OC[C@@H]2CCCN2C)c1 [Example 16, 5-(2-(Methoxycarbonyl)ethenyl-3-(1-methyl-2-(S)-pyrrolidinylmethoxy)pyridine Dihydrochloride] | 6 |  |  |  |
| CN1CCC[C@H]1COc1cncc(C#CCCCc2ccccc2)c1 [Example 17, 5-(5-Phenyl-1-pentynyl)-3-(1-methyl-2-(S)-pyrrolidinylmethoxy)pyridine Dihydrochloride] | 32 |  |  | inhibition at 10 µM [1, 3]: 100% |
| CCCC(=O)C=Cc1cncc(OC[C@@H]2CCCN2C)c1 [Example 22, 5-(3-oxo-1-Hexenyl)-3-(1-methyl-2-(S)-pyrrolidinylmethoxy)pyridinine Dihydrochloride] | 44 |  |  |  |
| Cl.Cl.Clc1ncc(OC[C@@H]2CCCN2)cc1Br [Example 23, 5-Bromo-6-chloro-3-(2-(S)-pyrrolidinylmethoxy)pyridine Dihydrochloride] | 27 | 264 to 268 °C |  |  |
| CN1CCC[C@H]1COc1cnc(Cl)c(Br)c1.Cl.Cl [Example 24, 5-Bromo-6-chloro-3-(1-methyl-2-(S)-pyrrolidinylmethoxy)pyridine Dihydrochloride] | 17 | 189 to 191 °C |  |  |
| CN1CCC[C@H]1COc1cncc(-c2cncnc2)c1.Cl.Cl [Example 25, 5-(5-Pyrimidinyl)-3-(1-methyl-2-(S)-pyrrolidinylmethoxy)pyridine Dihydrochloride] |  | 205 to 220 °C | 4.5 |  |
| CN1CCC[C@H]1COc1cnc(Cl)c(-c2ccccc2)c1.Cl.Cl [Example 26, 5-Phenyl-6-chloro-3-(1-methyl-2-(S)-pyrrolidinylmethoxy)pyridine Dihydrochloride] | 47 | 180 to 183 °C |  |  |
| CN1CCC[C@H]1COc1cncc(C#CCCCCO)c1 [Example 28, 5-(6-Hydroxy-1-hexynyl)-3-(1-methyl-2-(S)-pyrrolidipylmethoxy)pyridine Dihydrochloride] | 20 |  |  |  |
| CN1CCC[C@H]1COc1cncc(C=CC=CC(C)(C)C)c1.Cl.Cl [Example 30, 5-(5,5-Dimethyl-1,3-hexadienyl)-3-(1-methyl-2-(S)-pyrrolidinylmethoxy)pyridine Dihydrochloride] | 21 | 148 to 150 °C |  | inhibition at 10 µM [1, 3]: 90% |
| Cl.Cl.Clc1ncc(OC[C@@H]2CCCN2)cc1C=Cc1ccncc1 [Example 33, 5-(2-(4-Pyridinyl)ethenyl)-6-chloro-3-(2-(S)-pyrrolidinylmethoxy)pyridine Dihydrochloride] |  | 235 to 240 °C | 47 |  |
| CN1CCC[C@H]1COc1cncc(C#CC(C)(C)C)c1 [Example 47, 5-(3,3-Dimethylbutynyl)-3-(1-methyl-2-(S)-pyrrolidinylmethoxy)pyridine Dihydrochloride] | 66 |  |  |  |
| Cc1ccc(C#Cc2cncc(OC[C@@H]3CCCN3C)c2)cc1.Cl.Cl [Example 48, 5-(2-(4-Methylphenyl)ethynyl)-3-(1-methyl-2-(S)-pyrrolidinylmethoxy)pyridine Dihydrochloride] | 40 | 197 to 199 °C |  |  |
| CCCCCCC#Cc1cncc(OC[C@@H]2CCCN2C)c1 [Example 49, 5-Octynyl-3-(1-methyl-2-(S)-pyrrolidinylmethoxy)pyridine Dihydrochloride] | 33 |  |  |  |
| Cl.Cl.c1ccc(-c2cncc(OC[C@@H]3CCCN3)c2)cc1 [Example 51, 5-Phenyl-3-(2-(S)-pyrrolidinylmethoxy)pyridine Dihydrochloride] | 42 | 134 to 136 °C |  |  |

| SMILES | inhibition at 1 µM [1, 2] [%] | melting point | Emax [1, 4] [%] | also measured |
| --- | --- | --- | --- | --- |
| Cl.Cl.c1ccc(-c2cncc(OC[C@H]3CCCN3)c2)cc1 [Example 52, 5-Phenyl-3-(2-(R)-pyrrolidinylmethoxy)pyridine Dihydrochloride] | 22 | 129 to 131 °C |  | inhibition at 10 µM [1, 3]: 88% |
| CN1CCC[C@@H]1COc1cncc(-c2ccccc2)c1.Cl.Cl [Example 53, 5-Phenyl-3-(1-methyl-2-(R)-pyrrolidinylmethoxy)pyridine Dihydrochloride] | 35 | 89 to 90 °C |  | inhibition at 10 µM [1, 3]: 100% |
| Cl.Cl.c1ccc(-c2cncc(OC[C@@H]3CCN3)c2)cc1 [Example 56, 5-Phenyl-3-(2-(S)-azetidinylmethoxy)pyridine Dihydrochloride] |  |  |  | IMR-32 maximal response [1, 4]: 20%; % Inhibition @ 1 μM [1, 2]: 16% |
| CN1CC[C@H]1COc1cncc(-c2ccccc2)c1.Cl.Cl [Example 57, 5-Phenyl-3-(1-methyl-2-(S)-azetidinylmethoxy)pyridine Dihydrochloride] | 21 | 120 to 122 °C |  |  |
| Clc1ncc(OC[C@@H]2CCN2)cc1-c1ccccc1 [Example 67, 5-Phenyl-6-chloro-3-(2-(S)-azetidinylmethoxy)pyridine Hidrochloride] |  |  | 90 |  |
| CN1CCC[C@@H]1COc1cnc(Cl)c(-c2ccccc2)c1 [Example 69, 5-Phenyl-6-chloro-3-(1-methyl-2-(R)-pyrrolidinylmethoxy)pyridine Dihydrochloride] |  |  | 6 |  |
| Clc1ncc(OC[C@H]2CCCN2)cc1C=Cc1ccncc1 [Example 81, 5-(2-(4-Pyridinyl)ethenyl)-6-chloro-3-(2-(R)-pyrrolidinylmethoxy)pyridine Dihydrochloride] |  |  | 32 |  |
| Cl.Cl.Clc1ncc(OC[C@@H]2CCCN2)cc1-c1ccccc1 [Example 84, 5-Phenyl-6-chloro-3-(2-(S)-pyrrolidinylmethoxy)pyridine Dihydrochloride] |  | 75 to 80 °C | 37 |  |
| C(=C\c1cncc(OC[C@H]2CCCN2)c1)/c1ccncc1 [Example 86, 5-(2-(4-Pyridinyl)ethenyl)-3-(2-(R)-pyrroylidinylmethoxy)pyridine Trihydrochloride] |  |  | 44 |  |
| Cl.Cl.Cl.c1cc(CCc2cncc(OC[C@H]3CCCN3)c2)ccn1 [Example 87, 5-(2-(4-Pyridinyl)ethyl)-3-(2-(R)-pyrrolidinylmethoxy)pyridine Trihydrochloride] |  | 178 to 180 °C | 40 |  |
| Clc1ncc(OC[C@@H]2CCN2)cc1C=Cc1ccncc1 [Example 89, 5-(2-(4-Pyridinyl)ethenyl)-6-chloro-3-(2-(S)-azetidnylmethoxy)pyridine Citric Acid Salt] |  |  | 72 |  |
| O=C(NCc1cc(OC[C@@H]2CCN2)cnc1Cl)c1ccccc1 [Example 92, 3-(2-(S)-Azetidinylmethoxy)-5-(N-benzoylamino)methyl-6-chloropyridine Hydrochloride] |  |  | 25 |  |
| c1csc(-c2cncc(OC[C@@H]3CCN3)c2)c1 [Example 154, 3-(2-(S)-Azetidinylmethoxy)-5-(2-thienyl)pyridine Dihydrochloride] |  |  | 1.5 |  |
| C=Cc1cc(OC[C@@H]2CCN2)cnc1Cl.Cl.Cl [Example 165, 3-(2-(S)-Azetidinylmethoxy)-6-chloro-5-ethenylpyridine Dihydrochloride] |  | 121 °C (dec.) | 127 |  |
| C=CCc1cncc(OC[C@@H]2CCN2)c1 [Example 181, 5-Allyl-3-(2-(S)-azetidinylmethoxy)pyridine Hydrochloride] |  |  | 82 |  |
| C=CCc1cc(OC[C@@H]2CCCN2)cnc1Cl [Example 183, 5-Allyl-6-chloro-3-(2-(S)-pyrrolidinylmethoxy)pyridine Hydrochloride] |  |  | 110 |  |
| CC(=O)NCc1cc(OC[C@@H]2CCN2)cnc1Cl [Example 206, 5-Acetamidomethyl-3-(2-(S)-azetidinylmethoxy)-6-chloropyridine Dihydrochloride] |  |  | 11 |  |
